Assay results: the supplement of paper PMC10307832

Columns and labels:
Assay in all cases: relative viability (nuclei count vs DMSO), 5 days (fraction); higher = more cells survive
[1] = compound: O=C(NCCCNc1nc(Nc2cccc(NC(=O)N3CCCC3)c2)ncc1I)c1cccs1 [BX 795] + CC(=O)Nc1cccc(-n2c(=O)n(C3CC3)c(=O)c3c(Nc4ccc(I)cc4F)n(C)c(=O)c(C)c32)c1 [Trametinib] (partner 0.02 µM)
Outline: (§1)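 Relative viability was taken as the ratio of nuclei in treated wells to nuclei in vehicle wells. Lung cancer cell lines in 1536-well plates received compounds by pin tool one day after seeding, either one drug alone or a fixed anchor-drug dose plus five library-drug doses (not always all listed) in √10 steps. Nuclei were counted on 4× images after 5 days of treatment, and values are medians of duplicate plates.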

[2] = compound: O=C(NCCCNc1nc(Nc2cccc(NC(=O)N3CCCC3)c2)ncc1I)c1cccs1 [BX 795] + CS(=O)(=O)N1CCN(Cc2cc3nc(-c4cccc5[nH]ncc45)nc(N4CCOCC4)c3s2)CC1 [Pictilisib] (partner 1 µM)
Outline: as §1

[3] = compound: O=C(NCCCNc1nc(Nc2cccc(NC(=O)N3CCCC3)c2)ncc1I)c1cccs1 [BX 795] + C[C@@H](Oc1cc(-c2cnn(C3CCNCC3)c2)cnc1N)c1c(Cl)ccc(F)c1Cl [Crizotinib] (partner 1 µM)
Outline: as §1

[4] = compound: O=C(NCCCNc1nc(Nc2cccc(NC(=O)N3CCCC3)c2)ncc1I)c1cccs1 [BX 795] + CC1(C)CCC(c2ccc(Cl)cc2)=C(CN2CCN(c3ccc(C(=O)NS(=O)(=O)c4ccc(N[C@H](CCN5CCOCC5)CSc5ccccc5)c(S(=O)(=O)C(F)(F)F)c4)cc3)CC2)C1 [Navitoclax] (partner 0.5 µM)
Outline: as §1

[5] = compound: O=C(NCCCNc1nc(Nc2cccc(NC(=O)N3CCCC3)c2)ncc1I)c1cccs1 [BX 795] + CCNC(=O)c1noc(-c2cc(C(C)C)c(O)cc2O)c1-c1ccc(CN2CCOCC2)cc1 [Luminespib] (partner 0.01 µM)
Outline: as §1

Work on HCC-366 yielded a relative viability ([1]; first compound 0.04 µM) of 0.391, a relative viability ([1]; first compound 0.1265 µM) of 0.338 and a relative viability ([1]; first compound 0.4 µM) of 0.421. For the same cell line, the relative viability ([1]; first compound 1.265 µM) was 0.32, the relative viability ([2]; first compound 0.04 µM) was 0.145 and the relative viability ([2]; first compound 0.1265 µM) was 0.137. For the same cell line, the relative viability ([2]; first compound 0.4 µM) was 0.104, the relative viability ([2]; first compound 1.265 µM) was 0.0928 and the relative viability ([3]; first compound 0.04 µM) was 0.541. For the same cell line, the relative viability ([3]; first compound 0.1265 µM) was 0.616, the relative viability ([3]; first compound 0.4 µM) was 0.188 and the relative viability ([3]; first compound 1.265 µM) was 0.313. For the same cell line, the relative viability ([4]; first compound 0.04 µM) was 0.865, the relative viability ([4]; first compound 0.1265 µM) was 0.977 and the relative viability ([4]; first compound 0.4 µM) was 0.74. For the same cell line, the relative viability ([4]; first compound 1.265 µM) was 0.823.

HCC-827 gave a relative viability ([1]; first compound 0.04 µM) of 0.54, a relative viability ([1]; first compound 0.1265 µM) of 0.539 and a relative viability ([1]; first compound 0.4 µM) of 0.575. It also gave a relative viability ([1]; first compound 1.265 µM) of 0.551, a relative viability ([5]; first compound 0.04 µM) of 0.746 and a relative viability ([5]; first compound 0.1265 µM) of 0.657. It also gave a relative viability ([5]; first compound 0.4 µM) of 0.823, a relative viability ([5]; first compound 1.265 µM) of 0.644 and a relative viability ([2]; first compound 0.04 µM) of 1.13. It also gave a relative viability ([2]; first compound 0.1265 µM) of 1.02, a relative viability ([2]; first compound 0.4 µM) of 1.12 and a relative viability ([2]; first compound 1.265 µM) of 0.961. It also gave a relative viability ([3]; first compound 0.04 µM) of 0.935, a relative viability ([3]; first compound 0.1265 µM) of 0.923 and a relative viability ([3]; first compound 0.4 µM) of 0.892. It also gave a relative viability ([3]; first compound 1.265 µM) of 0.712, a relative viability ([4]; first compound 0.04 µM) of 1.1 and a relative viability ([4]; first compound 0.1265 µM) of 0.974. It also gave a relative viability ([4]; first compound 0.4 µM) of 1.05 and a relative viability ([4]; first compound 1.265 µM) of 0.908.

For HOP-62, the relative viability ([1]; first compound 0.04 µM) was 0.374, the relative viability ([1]; first compound 0.1265 µM) was 0.369 and the relative viability ([1]; first compound 0.4 µM) was 0.365. For the same cell line, the relative viability ([1]; first compound 1.265 µM) was 0.317, the relative viability ([5]; first compound 0.04 µM) was 0.81 and the relative viability ([5]; first compound 0.1265 µM) was 1.01. It also gave a relative viability ([5]; first compound 0.4 µM) of 1.08, a relative viability ([5]; first compound 1.265 µM) of 1.02 and a relative viability ([2]; first compound 0.04 µM) of 0.803. It also gave a relative viability ([2]; first compound 0.1265 µM) of 0.586, a relative viability ([2]; first compound 0.4 µM) of 0.682 and a relative viability ([2]; first compound 1.265 µM) of 0.66. The relative viability ([3]; first compound 0.04 µM) was 1.04, the relative viability ([3]; first compound 0.1265 µM) was 0.953 and the relative viability ([3]; first compound 0.4 µM) was 1.13. For the same cell line, the relative viability ([3]; first compound 1.265 µM) was 0.941, the relative viability ([4]; first compound 0.04 µM) was 1.09 and the relative viability ([4]; first compound 0.1265 µM) was 1.24. It also gave a relative viability ([4]; first compound 0.4 µM) of 1.21 and a relative viability ([4]; first compound 1.265 µM) of 1.07.

Cell Line IA-LM has a relative viability ([2]; first compound 0.04 µM) of 0.367, a relative viability ([2]; first compound 0.1265 µM) of 0.311 and a relative viability ([2]; first compound 0.4 µM) of 0.531. The relative viability ([2]; first compound 1.265 µM) was 0.332, the relative viability ([3]; first compound 0.04 µM) was 0.78 and the relative viability ([3]; first compound 0.1265 µM) was 0.936. For the same cell line, the relative viability ([3]; first compound 0.4 µM) was 1.32, the relative viability ([3]; first compound 1.265 µM) was 0.546 and the relative viability ([4]; first compound 0.04 µM) was 0.755. It also gave a relative viability ([4]; first compound 0.1265 µM) of 0.725, a relative viability ([4]; first compound 0.4 µM) of 0.952 and a relative viability ([4]; first compound 1.265 µM) of 0.52.

Cell Line LC-2-ad has a relative viability ([1]; first compound 0.04 µM) of 0.886, a relative viability ([1]; first compound 0.1265 µM) of 0.95 and a relative viability ([1]; first compound 0.4 µM) of 0.646. The relative viability ([1]; first compound 1.265 µM) was 0.662, the relative viability ([5]; first compound 0.04 µM) was 1.16 and the relative viability ([5]; first compound 0.1265 µM) was 1.03. It also gave a relative viability ([5]; first compound 0.4 µM) of 0.938, a relative viability ([5]; first compound 1.265 µM) of 0.662 and a relative viability ([2]; first compound 0.04 µM) of 0.471. For the same cell line, the relative viability ([2]; first compound 0.1265 µM) was 0.387, the relative viability ([2]; first compound 0.4 µM) was 0.333 and the relative viability ([2]; first compound 1.265 µM) was 0.202. It also gave a relative viability ([3]; first compound 0.04 µM) of 0.558, a relative viability ([3]; first compound 0.1265 µM) of 0.316 and a relative viability ([3]; first compound 0.4 µM) of 0.325. For the same cell line, the relative viability ([3]; first compound 1.265 µM) was 0.402, the relative viability ([4]; first compound 0.04 µM) was 0.503 and the relative viability ([4]; first compound 0.1265 µM) was 0.448. The relative viability ([4]; first compound 0.4 µM) was 0.467 and the relative viability ([4]; first compound 1.265 µM) was 0.213.

LCLC-97TM1 gave a relative viability ([1]; first compound 0.04 µM) of 0.203, a relative viability ([1]; first compound 0.1265 µM) of 0.19 and a relative viability ([1]; first compound 0.4 µM) of 0.179. It also gave a relative viability ([1]; first compound 1.265 µM) of 0.166, a relative viability ([5]; first compound 0.04 µM) of 0.939 and a relative viability ([5]; first compound 0.1265 µM) of 0.657. It also gave a relative viability ([5]; first compound 0.4 µM) of 0.774, a relative viability ([5]; first compound 1.265 µM) of 0.456 and a relative viability ([2]; first compound 0.04 µM) of 0.186. It also gave a relative viability ([2]; first compound 0.1265 µM) of 0.163, a relative viability ([2]; first compound 0.4 µM) of 0.206 and a relative viability ([2]; first compound 1.265 µM) of 0.137. It also gave a relative viability ([3]; first compound 0.04 µM) of 0.475, a relative viability ([3]; first compound 0.1265 µM) of 0.431 and a relative viability ([3]; first compound 0.4 µM) of 0.306. For the same cell line, the relative viability ([3]; first compound 1.265 µM) was 0.209, the relative viability ([4]; first compound 0.04 µM) was 0.398 and the relative viability ([4]; first compound 0.1265 µM) was 0.45. The relative viability ([4]; first compound 0.4 µM) was 0.529 and the relative viability ([4]; first compound 1.265 µM) was 0.432.

LCLC-103H showed a relative viability ([1]; first compound 0.04 µM) of 0.578, a relative viability ([1]; first compound 0.1265 µM) of 0.681 and a relative viability ([1]; first compound 0.4 µM) of 0.712. It also gave a relative viability ([1]; first compound 1.265 µM) of 0.651, a relative viability ([5]; first compound 0.04 µM) of 0.941 and a relative viability ([5]; first compound 0.1265 µM) of 0.84. The relative viability ([5]; first compound 0.4 µM) was 1.06, the relative viability ([5]; first compound 1.265 µM) was 0.737 and the relative viability ([2]; first compound 0.04 µM) was 0.577. For the same cell line, the relative viability ([2]; first compound 0.1265 µM) was 0.674, the relative viability ([2]; first compound 0.4 µM) was 0.596 and the relative viability ([2]; first compound 1.265 µM) was 0.643. The relative viability ([3]; first compound 0.04 µM) was 0.979, the relative viability ([3]; first compound 0.1265 µM) was 1.1 and the relative viability ([3]; first compound 0.4 µM) was 1.01. For the same cell line, the relative viability ([3]; first compound 1.265 µM) was 1.04.

With LK-2 the relative viability ([1]; first compound 0.04 µM) was 0.757, the relative viability ([1]; first compound 0.1265 µM) was 0.837 and the relative viability ([1]; first compound 0.4 µM) was 0.583. It also gave a relative viability ([1]; first compound 1.265 µM) of 0.629, a relative viability ([5]; first compound 0.04 µM) of 0.186 and a relative viability ([5]; first compound 0.1265 µM) of 0.174. For the same cell line, the relative viability ([5]; first compound 0.4 µM) was 0.175, the relative viability ([5]; first compound 1.265 µM) was 0.189 and the relative viability ([2]; first compound 0.04 µM) was 0.622. It also gave a relative viability ([2]; first compound 0.1265 µM) of 0.556, a relative viability ([2]; first compound 0.4 µM) of 0.47 and a relative viability ([2]; first compound 1.265 µM) of 0.557. The relative viability ([3]; first compound 0.04 µM) was 0.238, the relative viability ([3]; first compound 0.1265 µM) was 0.171 and the relative viability ([3]; first compound 0.4 µM) was 0.21. For the same cell line, the relative viability ([3]; first compound 1.265 µM) was 0.193, the relative viability ([4]; first compound 0.04 µM) was 0.873 and the relative viability ([4]; first compound 0.1265 µM) was 0.876. For the same cell line, the relative viability ([4]; first compound 0.4 µM) was 0.787 and the relative viability ([4]; first compound 1.265 µM) was 0.608.
